In PubChem BioAssay AID1963439 (Molecular Pharmacology Branch, DTP, NCI, 2024):

Test system: NCI-H196 complex spheroids with HUVEC/MSC, growth % T/C
Assay: Anticancer human tumor NCI-H196 cell line growth inhibition [Asc];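 further: spheroids exposed to compound for 7 days before measurement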;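 on viability, T/C: 100% = DMSO vehicle control wells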
Settings: for IC50: curve of first compound; for viability, T/C: stronger effect = lower value
In short: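 Concentration series start at each agent's clinical Cmax, or at 10 microM when none is established, and drop in half-log steps; agents are applied alone or together to complex spheroids built with HUVEC and hMSC.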

[1] = second compound 0.01 µM, first compound 0.00316 µM
[2] = second compound 0.01 µM, first compound 0.01 µM
[3] = second compound 0.01 µM, first compound 0.0316 µM
[4] = second compound 0.01 µM, first compound 0.1 µM
[5] = second compound 0.01 µM, first compound 0.316 µM
[6] = second compound 0.01 µM, first compound 1 µM
[7] = second compound 0.0316 µM, first compound 0.00316 µM
[8] = second compound 0.0316 µM, first compound 0.01 µM
[9] = second compound 0.0316 µM, first compound 0.0316 µM
[10] = second compound 0.0316 µM, first compound 0.1 µM
[11] = second compound 0.0316 µM, first compound 0.316 µM
[12] = second compound 0.0316 µM, first compound 1 µM
[13] = second compound 0.1 µM, first compound 0.00316 µM
[14] = second compound 0.1 µM, first compound 0.01 µM
[15] = second compound 0.1 µM, first compound 0.0316 µM
[16] = second compound 0.1 µM, first compound 0.1 µM
[17] = second compound 0.1 µM, first compound 0.316 µM
[18] = second compound 0.1 µM, first compound 1 µM
[19] = second compound 0.316 µM, first compound 0.00316 µM
[20] = second compound 0.316 µM, first compound 0.01 µM
[21] = second compound 0.316 µM, first compound 0.0316 µM
[22] = second compound 0.316 µM, first compound 0.1 µM
[23] = second compound 0.316 µM, first compound 0.316 µM
[24] = second compound 0.316 µM, first compound 1 µM
[25] = second compound 1 µM, first compound 0.00316 µM
[26] = second compound 1 µM, first compound 0.01 µM
[27] = second compound 1 µM, first compound 0.0316 µM
[28] = second compound 1 µM, first compound 0.1 µM
[29] = second compound 1 µM, first compound 0.316 µM
[30] = second compound 1 µM, first compound 1 µM

Cc1nc(N2CCC3(CC2)COC(C)C3N)c(CO)nc1Sc1ccnc(N)c1Cl (stereo not given) + CNC(C)C(=O)NC1CN(S(=O)(=O)c2cccc(S(=O)(=O)N3CCC4CCC(C(=O)NC(c5ccccc5)c5ccccc5)N4C(=O)C(NC(=O)C(C)NC)C3)c2)CCC2CCC(C(=O)NC(c3ccccc3)c3ccccc3)N2C1=O was tested, and the IC50 (second compound 0.01 µM) was < 9.49 nM, the IC50 (second compound 0.0316 µM) was < 9.49 nM and the IC50 (second compound 0.1 µM) was < 9.49 nM. The IC50 (second compound 0.316 µM) was < 9.49 nM, the IC50 (second compound 1 µM) was < 9.49 nM and the viability, T/C (second compound 0.01 µM, first compound 0.00949 µM) was 11%. It also gave a viability, T/C (second compound 0.01 µM, first compound 0.03 µM) of 7.94%, a viability, T/C (second compound 0.01 µM, first compound 0.0949 µM) of 5.15% and a viability, T/C (second compound 0.01 µM, first compound 0.3 µM) of 6.8%. For the same molecule, the viability, T/C (second compound 0.01 µM, first compound 0.949 µM) was 6.64%, the viability, T/C (second compound 0.01 µM, first compound 3 µM) was 6.64% and the viability, T/C (second compound 0.0316 µM, first compound 0.00949 µM) was 4.39%. The viability, T/C (second compound 0.0316 µM, first compound 0.03 µM) was 3.45%, the viability, T/C (second compound 0.0316 µM, first compound 0.0949 µM) was 4.36% and the viability, T/C (second compound 0.0316 µM, first compound 0.3 µM) was 3.89%. It also gave a viability, T/C (second compound 0.0316 µM, first compound 0.949 µM) of 4.66%, a viability, T/C (second compound 0.0316 µM, first compound 3 µM) of 4.54% and a viability, T/C (second compound 0.1 µM, first compound 0.00949 µM) of 3.47%. The viability, T/C (second compound 0.1 µM, first compound 0.03 µM) was 3.41%, the viability, T/C (second compound 0.1 µM, first compound 0.0949 µM) was 4.81% and the viability, T/C (second compound 0.1 µM, first compound 0.3 µM) was 3.67%. It also gave a viability, T/C (second compound 0.1 µM, first compound 0.949 µM) of 3.69%, a viability, T/C (second compound 0.1 µM, first compound 3 µM) of 3.62% and a viability, T/C (second compound 0.316 µM, first compound 0.00949 µM) of 3.86%. The viability, T/C (second compound 0.316 µM, first compound 0.03 µM) was 6.04%, the viability, T/C (second compound 0.316 µM, first compound 0.0949 µM) was 2.84% and the viability, T/C (second compound 0.316 µM, first compound 0.3 µM) was 2.59%. It also gave a viability, T/C (second compound 0.316 µM, first compound 0.949 µM) of 3.03%, a viability, T/C (second compound 0.316 µM, first compound 3 µM) of 3.1% and a viability, T/C (second compound 1 µM, first compound 0.00949 µM) of 4.12%. The viability, T/C (second compound 1 µM, first compound 0.03 µM) was 2.58%, the viability, T/C (second compound 1 µM, first compound 0.0949 µM) was 2.94% and the viability, T/C (second compound 1 µM, first compound 0.3 µM) was 2.39%. It also gave a viability, T/C (second compound 1 µM, first compound 0.949 µM) of 2.12% and a viability, T/C (second compound 1 µM, first compound 3 µM) of 1.83%.
In the case of COc1c(OCCCN2CCOCC2)ccc2c3n(c(=NC(=O)c4cnc(N)nc4)nc12)CCN3 + CNC(C)C(=O)NC1CN(S(=O)(=O)c2cccc(S(=O)(=O)N3CCC4CCC(C(=O)NC(c5ccccc5)c5ccccc5)N4C(=O)C(NC(=O)C(C)NC)C3)c2)CCC2CCC(C(=O)NC(c3ccccc3)c3ccccc3)N2C1=O, the IC50 (second compound 0.01 µM) is reported as < 3.16 nM, the IC50 (second compound 0.0316 µM) is reported as < 3.16 nM and the IC50 (second compound 0.1 µM) is reported as < 3.16 nM. For the same molecule, the IC50 (second compound 0.316 µM) was < 3.16 nM, the IC50 (second compound 1 µM) was < 3.16 nM and the viability, T/C [1] was 5.54%. The viability, T/C [2] was 4.98%, the viability, T/C [3] was 5.78% and the viability, T/C [4] was 6.94%. It also gave a viability, T/C [5] of 10.4%, a viability, T/C [6] of 12.5% and a viability, T/C [7] of 4.98%. It also gave a viability, T/C [8] of 5.47%, a viability, T/C [9] of 4.38% and a viability, T/C [10] of 4.6%. For the same molecule, the viability, T/C [11] was 5.64%, the viability, T/C [12] was 9.69% and the viability, T/C [13] was 2.54%. The viability, T/C [14] was 3.24%, the viability, T/C [15] was 3.31% and the viability, T/C [16] was 2.53%. For the same molecule, the viability, T/C [17] was 5.11%, the viability, T/C [18] was 4.24% and the viability, T/C [19] was 3.55%. It also gave a viability, T/C [20] of 2.22%, a viability, T/C [21] of 1.86% and a viability, T/C [22] of 3.02%. It also gave a viability, T/C [23] of 3.25%, a viability, T/C [24] of 3.07% and a viability, T/C [25] of 2.39%. It also gave a viability, T/C [26] of 2.16%, a viability, T/C [27] of 2.41% and a viability, T/C [28] of 2.12%. It also gave a viability, T/C [29] of 1.61% and a viability, T/C [30] of 2.15%.
In the case of O=C(c1ccc(F)c(F)c1Nc1ccc(I)cc1F)N1CC(O)([C@@H]2CCCCN2)C1 + CNC(C)C(=O)NC1CN(S(=O)(=O)c2cccc(S(=O)(=O)N3CCC4CCC(C(=O)NC(c5ccccc5)c5ccccc5)N4C(=O)C(NC(=O)C(C)NC)C3)c2)CCC2CCC(C(=O)NC(c3ccccc3)c3ccccc3)N2C1=O, the IC50 (second compound 0.01 µM) is reported as < 3.16 nM, the IC50 (second compound 0.0316 µM) is reported as < 3.16 nM and the IC50 (second compound 0.1 µM) is reported as < 3.16 nM. The IC50 (second compound 0.316 µM) was < 3.16 nM, the IC50 (second compound 1 µM) was < 3.16 nM and the viability, T/C [1] was 8.04%. The viability, T/C [2] was 5.36%, the viability, T/C [3] was 5.61% and the viability, T/C [4] was 8.2%. It also gave a viability, T/C [5] of 12.4%, a viability, T/C [6] of 17.3% and a viability, T/C [7] of 3.55%. For the same molecule, the viability, T/C [8] was 6.82%, the viability, T/C [9] was 5.25% and the viability, T/C [10] was 3.88%. The viability, T/C [11] was 6.05%, the viability, T/C [12] was 7.48% and the viability, T/C [13] was 4.86%. The viability, T/C [14] was 5.49%, the viability, T/C [15] was 4.59% and the viability, T/C [16] was 2.13%. The viability, T/C [17] was 3.06%, the viability, T/C [18] was 4.14% and the viability, T/C [19] was 7.23%. It also gave a viability, T/C [20] of 3.09%, a viability, T/C [21] of 3.2% and a viability, T/C [22] of 2.51%. It also gave a viability, T/C [23] of 3.39%, a viability, T/C [24] of 3.61% and a viability, T/C [25] of 3.63%. It also gave a viability, T/C [26] of 3.54%, a viability, T/C [27] of 4.37% and a viability, T/C [28] of 2.53%. The viability, T/C [29] was 2.07% and the viability, T/C [30] was 3.08%.
For NC1CCC(NC2CC2c2ccccc2)CC1 (stereo not given) + CCN1C(C(=O)NC23CCC(C(=O)O)(CC2)CC3)C(c2cccc(Cl)c2F)C2(C(=O)Nc3cc(Cl)ccc32)C12CCCCC2, the IC50 (second compound 0.03 µM) was > 100 nM, the IC50 (second compound 0.0949 µM) was > 100 nM and the IC50 (second compound 0.3 µM) was > 100 nM. For the same molecule, the IC50 (second compound 0.949 µM) was > 100 nM, the IC50 (second compound 3 µM) was > 100 nM and the viability, T/C (second compound 0.03 µM, first compound 0.000316 µM) was 109%. It also gave a viability, T/C (second compound 0.03 µM, first compound 0.001 µM) of 98%, a viability, T/C (second compound 0.03 µM, first compound 0.00316 µM) of 109% and a viability, T/C (second compound 0.03 µM, first compound 0.01 µM) of 110%. The viability, T/C (second compound 0.03 µM, first compound 0.0316 µM) was 105%, the viability, T/C (second compound 0.03 µM, first compound 0.1 µM) was 96.7% and the viability, T/C (second compound 0.0949 µM, first compound 0.000316 µM) was 102%. It also gave a viability, T/C (second compound 0.0949 µM, first compound 0.001 µM) of 108%, a viability, T/C (second compound 0.0949 µM, first compound 0.00316 µM) of 111% and a viability, T/C (second compound 0.0949 µM, first compound 0.01 µM) of 103%. It also gave a viability, T/C (second compound 0.0949 µM, first compound 0.0316 µM) of 100%, a viability, T/C (second compound 0.0949 µM, first compound 0.1 µM) of 105% and a viability, T/C (second compound 0.3 µM, first compound 0.000316 µM) of 118%. The viability, T/C (second compound 0.3 µM, first compound 0.001 µM) was 117%, the viability, T/C (second compound 0.3 µM, first compound 0.00316 µM) was 108% and the viability, T/C (second compound 0.3 µM, first compound 0.01 µM) was 105%. It also gave a viability, T/C (second compound 0.3 µM, first compound 0.0316 µM) of 97.8%, a viability, T/C (second compound 0.3 µM, first compound 0.1 µM) of 119% and a viability, T/C (second compound 0.949 µM, first compound 0.000316 µM) of 111%. For the same molecule, the viability, T/C (second compound 0.949 µM, first compound 0.001 µM) was 121%, the viability, T/C (second compound 0.949 µM, first compound 0.00316 µM) was 112% and the viability, T/C (second compound 0.949 µM, first compound 0.01 µM) was 114%. The viability, T/C (second compound 0.949 µM, first compound 0.0316 µM) was 115%, the viability, T/C (second compound 0.949 µM, first compound 0.1 µM) was 119% and the viability, T/C (second compound 3 µM, first compound 0.000316 µM) was 119%. The viability, T/C (second compound 3 µM, first compound 0.001 µM) was 123%, the viability, T/C (second compound 3 µM, first compound 0.00316 µM) was 112% and the viability, T/C (second compound 3 µM, first compound 0.01 µM) was 104%. For the same molecule, the viability, T/C (second compound 3 µM, first compound 0.0316 µM) was 115% and the viability, T/C (second compound 3 µM, first compound 0.1 µM) was 112%.
